Common to all, as to assay: NCI-60 cell line screen, 48 h
In experiment [1] the test system is ACHN renal.
In experiment [2] the test system is BT-549 breast.
Experiment [3] deals with MDA-MB-231 breast.
The test system of experiment [4] is MDA-MB-435.
The subject of experiment [5] is NCI-H23 lung.
The test system of experiment [6] is NCI-H522 lung.
The subject of experiment [7] is SN12C renal.
Experiment [8] relates to SW-620 colon.
In experiment [9] the test system is UO-31 renal.
Experiment [10] relates to HOP-92 NSCLC.
In experiment [11] the test system is SF-539 CNS.

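Values below derive from 48-hour exposures of cells grown in 96-well plates, with endpoints linearly interpolated between the two concentrations bracketing the appropriate inhibition level. Abbreviation: GI50, concentration required for 50% inhibition of growth. The concentration for full growth arrest is given as TGI.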

Take `Cc1cccc(N=NC(=O)NNc2cccc(C)c2C)c1C`: the TGI in experiment [1] is 95.7 µM; in experiment [2] it was above 100 µM; in experiment [3], above 100 µM; in experiment [4], 64.9 µM; in experiment [5] it was above 100 µM; in experiment [6] it was 53.6 µM. For the same compound, the TGI in [7], in experiment [8] and in experiment [9] was above 100 µM in each case.
Take `Cc1c(S(=O)(=O)/N=C(\NO)Nc2ccc(Cl)c(Cl)c2)sc2ccc(Cl)cc12`: the TGI in [1] came out at 25.8 µM; in [2] it was 34 µM; in experiment [10], 43.8 µM; in experiment [3], 55.3 µM; in [4], 37.3 µM; in [5], 36.6 µM. The TGI in experiment [6] is 41.3 µM; in experiment [11] it was 45.1 µM; in experiment [7], 35.8 µM; in experiment [8] it was above 100 µM; in experiment [9], 37.8 µM.
Regarding `CCOC(=O)C(=Cc1[nH]c2ccccc2c1-c1c[nH]c2ccccc12)C(=O)OCC`, the TGI was 24.5 µM in experiment [1]; 33.1 µM in [2]; 23.5 µM in experiment [10]; 39.3 µM in experiment [3]; 18.3 µM in [4]; 35.4 µM in [5]. Also, the TGI in experiment [6] was above 100 µM; in [11] it was 39.1 µM; in experiment [7] it was 29.4 µM; in experiment [9], 26.3 µM.
`COCN(CCC1=CCCCC1)C(=O)OC`: the TGI in experiment [1], in [2], in experiment [10], in experiment [3], in [4] and in [5] was above 100 µM each time. In addition, the TGI in [6], in experiment [8] and in experiment [9] was above 100 µM in each case.
Consider `O=C(NI1OC(=O)c2ccccc21)c1ccc(Cl)cc1`, for which the TGI in [1], in experiment [2], in [10], in experiment [3], in experiment [4] and in experiment [5] was above 100 µM in each case. For the same compound, the TGI is 35.2 µM in experiment [6]; above 100 µM in experiment [11]; above 100 µM in [7]; above 100 µM in [8]; above 100 µM in [9].
As for `CC1=NNC(N)=N/C1=C\C(Sc1ccc(Cl)cc1)c1ccc([N+](=O)[O-])cc1` (configuration not stated), the TGI in [1], in experiment [2], in [10], in [3], in experiment [4] and in experiment [5] was above 100 µM in each case. Further, the TGI in [6], in experiment [7], in experiment [8] and in [9] was above 100 µM throughout.
As to `Cc1ccc(SCC(CF)OC(C)n2cnc3c(=O)[nH]c(N)nc32)cc1` (configuration not stated), the TGI in experiment [1], in [2], in experiment [10], in [3], in experiment [4] and in experiment [5] was above 100 µM in each case. In addition, the TGI in [6], in experiment [11], in [7], in experiment [8] and in experiment [9] was above 100 µM each time.
As to `O=C1C(CN2CCCCC2)CCC1CN1CCCCC1` (configuration not stated), the TGI in experiment [1] was determined as 47.5 µM; in experiment [2] it was 34 µM; in experiment [10] it was 54.6 µM; in experiment [3], 42.3 µM; in experiment [4] it was 51.8 µM; in [5], 53.7 µM. For the same compound, the TGI in [6] was 11.1 µM; in [11], 56.1 µM; in experiment [7], 45.5 µM; in [8], 16 µM; in [9] it was 22.1 µM.
For `CCN(CC)CCNc1nc2ccc([N+](=O)[O-])cc2[n+]([O-])n1`, the TGI in experiment [1] was above 100 µM; in experiment [2], above 100 µM; in experiment [10] it was above 100 µM; in [3], 33.1 µM; in experiment [4], 29.5 µM; in experiment [5] it was 47.4 µM. Besides, the TGI is above 100 µM in experiment [6]; 54.2 µM in [11]; 54.9 µM in experiment [7]; 64.1 µM in experiment [8]; above 100 µM in experiment [9].
For `CSc1ncnc2c1ncn2C1CC(Oc2ccc(C)cc2)C(COc2ccc(C)cc2)O1` (configuration not stated), the TGI in [1], in experiment [2], in experiment [10], in [3], in [4] and in experiment [5] was above 100 µM throughout. Moreover, the TGI in [6], in [11], in experiment [7] and in experiment [8] was above 100 µM throughout.
On to `O=C(c1ccc(N=Cc2ccccc2O)cc1)c1ccc(N=Cc2ccccc2O)cc1`, for which the TGI in experiment [1], in experiment [2], in experiment [10], in [3], in experiment [4] and in experiment [5] was above 100 µM in each case. In addition, the TGI in experiment [6], in [11], in experiment [8] and in [9] was above 100 µM each time.
For the compound `O=C1/C(=C/c2ccc([N+](=O)[O-])cc2)C(=O)N(c2ccccc2)C1c1ccccc1` (configuration not stated), the TGI in experiment [1], in [2], in experiment [3], in [4], in experiment [5] and in experiment [6] was above 10 µM each time. In addition, the TGI in experiment [11], in [7], in experiment [8] and in experiment [9] was above 10 µM in each case.
In the case of `O=C(O)c1ccc([N+](=O)[O-])c2cc3cnccc3nc12`, the TGI in experiment [2] is 33.5 µM; in experiment [10], 45.8 µM; in experiment [3], 36.2 µM; in [4], above 100 µM; in [5], 62.9 µM; in [6], 32.4 µM. The results for the TGI in experiment [7] and in [9] were 32.8 µM and 43.7 µM, respectively.
With `Oc1ccc(-c2nc(-c3cccnc3)c(-c3ccc(Cl)cc3)[nH]2)cc1`, the TGI in [1] stood at 27.6 µM; in [2], 29 µM; in experiment [3], 35.1 µM; in [4], 25.5 µM; in experiment [5], 25.9 µM; in experiment [6], 23.8 µM. The TGI in experiment [7] amounted to 32.6 µM; in experiment [8] it was 29.9 µM; in experiment [9] it was 22.9 µM.
Regarding `CNc1ccc(C(=O)CC(O)CCC(C)C2OC(=O)CC(O)CC(=O)CC(O)CC(O)CC(O)CC(O)CC3(O)CC(O)C(C(=O)OC)C(CC(O[C@@H]4O[C@H](C)[C@@H](O)[C@H](N)[C@@H]4O)/C=C/C=C/C=C/C=C/C=C/C=C/C=C/C2C)O3)cc1` (some centres not stated), the GI50 in experiment [2] is 3.45 µM; in [10], 3.27 µM; in experiment [3], 2.88 µM; in experiment [4] it was 2.02 µM; in experiment [5], 1.92 µM; in experiment [6] it was 2.48 µM. For the same compound, the GI50 was 13.6 µM in [11], 1.46 µM in experiment [7] and 5.33 µM in [8]. Further, the TGI in experiment [2] was above 100 µM; in experiment [10], above 100 µM; in [3], above 100 µM; in experiment [4], 6.19 µM; in experiment [5], 4.84 µM; in experiment [6] it was 6.03 µM. For the same compound, the TGI in [11] was determined as 47.9 µM; in [7], 2.99 µM; in experiment [8] it was 40.5 µM.
For `Cc1ccc(-c2c(C#N)c(-c3ccc(Cl)cc3)c(C#N)c(=O)n2NS(=O)(=O)c2ccc(C)cc2)cc1`, the TGI in [1] is above 100 µM; in experiment [2], above 100 µM; in experiment [10] it was above 100 µM; in [3], above 100 µM; in experiment [4], above 100 µM; in experiment [6] it was 71.9 µM. In addition, the TGI in [11] was 50.1 µM; in experiment [7] it was above 100 µM; in experiment [8], above 100 µM.
With `COC[C@@H](C[C@H]1O[C@@](O)([C@H](O)[C@@H]2C[C@H](OC)[C@@H](O)CC/C=C(C)/C=C/[C@@H](O[C@@H]3O[C@@H](C)[C@H](OC)[C@@H](O)[C@@H]3O)[C@H](C)/C=C(C)/C=C(C)/C=C(\C)C(=O)O2)[C@H](C)[C@@H](O)[C@H]1C)O[C@H]1C[C@](C)(O)[C@@H](O[C@H]2C[C@@H](OC)[C@H](O)[C@@H](C)O2)C(C)O1` (some centres not stated), the TGI in experiment [1], in experiment [2], in experiment [10], in [3], in experiment [4] and in experiment [5] was above 100 µM throughout. Also, the TGI in experiment [11], in experiment [7], in [8] and in [9] was above 100 µM in each case.
Regarding `OCC(O)COCn1nncc1Cn1ncc2c(SCc3ccccc3)ncnc21` (configuration not stated), the TGI in experiment [1] is above 100 µM; in [2], above 100 µM; in experiment [3] it was above 100 µM; in experiment [4], above 100 µM; in experiment [5] it was above 100 µM; in experiment [6], 33.1 µM. Besides, the TGI in experiment [11], in experiment [7], in experiment [8] and in experiment [9] was above 100 µM in each case.

For the origin of these results see PubChem BioAssay (NCI).
